melting point: 132 to 140 °C (dec.)
SMILES: COc1cc(C(=O)N2Cc3ccc(C(=O)N(C)C[C@H](O)[C@@H](O)[C@@H](O)[C@H](O)CO)n3Cc3ccccc32)ccc1-c1ccccc1C(F)(F)F [Example 23, 10-{[2-Methoxy-2′-trifluoromethyl-[1,1′-biphenyl]-4-yl]carbonyl}-N-methyl-N-[(2R,3S,4R,5S)-2,3,4,5,6-pentahydroxyhexyl]-10,11-dihydro-5H-pyrrolo[2,1-c][1,4]benzodiazepine-3-carboxamide]

— patent US6900200B2, “Tricyclic hydroxy carboxamides and derivatives thereof tocolytic oxytocin receptor antagonists” (Wyeth, priority 2001, dated 2005)
